Measurements from patent US10144730B2, “Inhibitors of c-Jun-N-terminal kinase (JNK)” (Dana-Farber Cancer Institute, Inc., priority 2011, dated 2018).
pIC50: −log10 of the molar value.

Legend:
JNK1 = JNK1 (Homo sapiens, UniProt P45983); test: Biochemical JNK1 kinase inhibition (Z'-lyte format); conditions: Table 2
JNK2 = JNK2 (Homo sapiens, UniProt P45984); test: Biochemical JNK2 kinase inhibition (Z'-lyte format); conditions: Table 2
HIPK4 = biological target: T1, HIPK4 (Homo sapiens, UniProt Q8NE63); test: HIPK4 follow-up enzymatic assay; format: biochemical; conditions: follow-up enzymatic assay (FIG. 12)
T1 sequence (Q8NE63 1-616): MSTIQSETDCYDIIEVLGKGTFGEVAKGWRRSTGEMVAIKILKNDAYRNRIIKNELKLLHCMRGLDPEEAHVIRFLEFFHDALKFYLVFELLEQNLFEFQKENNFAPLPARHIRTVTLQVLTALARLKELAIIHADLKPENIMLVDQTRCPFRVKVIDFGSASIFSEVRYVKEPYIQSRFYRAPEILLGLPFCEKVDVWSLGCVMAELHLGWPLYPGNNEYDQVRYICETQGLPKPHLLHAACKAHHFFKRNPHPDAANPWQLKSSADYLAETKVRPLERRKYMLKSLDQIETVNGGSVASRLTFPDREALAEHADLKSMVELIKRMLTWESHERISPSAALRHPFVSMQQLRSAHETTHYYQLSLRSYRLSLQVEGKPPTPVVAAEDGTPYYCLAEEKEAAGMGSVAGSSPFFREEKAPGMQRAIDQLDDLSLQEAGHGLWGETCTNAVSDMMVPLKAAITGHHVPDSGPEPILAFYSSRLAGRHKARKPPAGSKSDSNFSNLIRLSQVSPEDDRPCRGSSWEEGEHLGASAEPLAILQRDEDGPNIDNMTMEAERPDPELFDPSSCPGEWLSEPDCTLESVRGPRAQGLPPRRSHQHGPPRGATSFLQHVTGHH
Description: This high in vitro selectivity however differed markedly from the large number of targets detected by KiNativ.

[1] = biological target: additional kinase targets; test: Follow-up enzymatic IC50 or Kd on potential additional kinase targets; conditions: further biochemical and binding assays
Description: Scores were obtained from the profiling against a […] using Kinome Scan™ technology as illustrated in FIG. 11.
To complement the KiNativ profiling, the in vitro kinase selectivity of several key compounds was comprehensively evaluated by two complementary approaches: a kinase-binding assays against a panel of 442 distinct kinases using the KINOMEscan methodology (DiscoverX) and a standard radioactivity-based enzymatic assays against a panel of 124 kinases (The National Centre for Protein Kinase Profiling in Dundee). […] It was attempted to confirm all these potent binding targets using either an enzymatic kinase assay or through the measurement of a dissociation constant to the kinase in question.

Sequence of JNK2 (P45984 whole entry): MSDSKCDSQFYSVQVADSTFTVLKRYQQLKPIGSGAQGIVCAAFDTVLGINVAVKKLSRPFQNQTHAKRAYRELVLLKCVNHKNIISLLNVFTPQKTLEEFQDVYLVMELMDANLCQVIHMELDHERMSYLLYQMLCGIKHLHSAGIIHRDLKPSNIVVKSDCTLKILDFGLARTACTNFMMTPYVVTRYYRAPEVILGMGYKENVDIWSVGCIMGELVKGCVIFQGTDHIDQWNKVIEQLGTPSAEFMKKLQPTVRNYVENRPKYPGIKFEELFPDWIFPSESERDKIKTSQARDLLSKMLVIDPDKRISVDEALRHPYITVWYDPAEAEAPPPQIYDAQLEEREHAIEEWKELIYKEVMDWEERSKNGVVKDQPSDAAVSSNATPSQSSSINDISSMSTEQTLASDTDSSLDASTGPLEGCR
Sequence of JNK1 (P45983 whole entry): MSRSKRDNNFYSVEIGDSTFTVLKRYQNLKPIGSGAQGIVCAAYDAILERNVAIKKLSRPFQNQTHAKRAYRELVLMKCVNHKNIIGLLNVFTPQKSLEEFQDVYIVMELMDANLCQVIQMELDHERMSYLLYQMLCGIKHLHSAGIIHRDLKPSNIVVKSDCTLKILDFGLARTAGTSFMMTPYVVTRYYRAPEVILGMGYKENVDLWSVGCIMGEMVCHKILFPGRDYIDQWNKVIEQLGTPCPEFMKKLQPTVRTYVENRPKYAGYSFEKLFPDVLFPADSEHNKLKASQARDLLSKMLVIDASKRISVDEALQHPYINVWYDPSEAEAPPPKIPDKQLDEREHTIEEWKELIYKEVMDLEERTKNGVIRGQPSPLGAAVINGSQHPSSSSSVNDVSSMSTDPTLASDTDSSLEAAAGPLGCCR

| IC50 (JNK1) [nM] | IC50 (JNK2) [nM] | pIC50 (HIPK4) | IC50 or Kd of any further target [1] [nM] | SMILES |
| --- | --- | --- | --- | --- |
| 13 | 11.3 | 7.24 |  | CN(C)C/C=C/C(=O)Nc1cccc(C(=O)Nc2ccc(Nc3nccc(/C(C#N)=C4\Nc5ccccc5S4)n3)cc2)c1 [JNK-IN-12] |
|  |  |  | ≥ 1000 | Cc1cc(NC(=O)c2cccc(NC(=O)/C=C/CN(C)C)c2)ccc1Nc1nccc(-c2cccnc2)n1 [JNK-IN-8] |
